Key:
Type in all cases: cell-based
RIPK1 = target: T1, RIPK1 (Mus musculus, UniProt Q60855); test: streptavidin pull down from cell lysate, immunoblot
T1 construct: endogenous, L929sAhFas and MEF cell lysates
T1 sequence (Q60855 1-656): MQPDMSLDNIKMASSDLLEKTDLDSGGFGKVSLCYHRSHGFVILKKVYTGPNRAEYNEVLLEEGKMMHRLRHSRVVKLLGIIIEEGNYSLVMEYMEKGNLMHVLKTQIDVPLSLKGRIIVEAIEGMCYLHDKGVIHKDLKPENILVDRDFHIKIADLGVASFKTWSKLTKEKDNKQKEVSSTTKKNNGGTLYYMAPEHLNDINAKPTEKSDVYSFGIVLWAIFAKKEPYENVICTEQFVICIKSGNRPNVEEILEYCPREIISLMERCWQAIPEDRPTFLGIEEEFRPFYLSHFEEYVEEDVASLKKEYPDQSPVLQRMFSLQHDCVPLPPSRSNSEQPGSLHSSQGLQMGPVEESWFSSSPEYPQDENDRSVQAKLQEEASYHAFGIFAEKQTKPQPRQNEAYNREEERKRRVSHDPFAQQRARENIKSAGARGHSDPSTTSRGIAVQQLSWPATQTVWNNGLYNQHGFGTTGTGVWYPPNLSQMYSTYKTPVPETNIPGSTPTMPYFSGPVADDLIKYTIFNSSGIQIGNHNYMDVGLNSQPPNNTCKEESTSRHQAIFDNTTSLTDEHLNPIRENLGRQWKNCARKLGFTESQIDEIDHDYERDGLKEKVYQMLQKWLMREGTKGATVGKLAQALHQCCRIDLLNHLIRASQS

B-Raf = target: T2, B-Raf (Mus musculus, UniProt P28028); test: as above
T2 construct: gene Braf; endogenous, L929sAhFas cell lysate

RIPK3 = target: T3, RIPK3 (Mus musculus, UniProt Q9QZL0); test: as above
T3 construct: endogenous, L929sAhFas and MEF cell lysates

MLKL = target: T4, MLKL (Mus musculus, UniProt Q9D2Y4); test: streptavidin pull down from lysates, including RIPK1-/- and RIPK3-/- MEF
T4 construct: endogenous, L929sAhFas and MEF cell lysates
T4 sequence (Q9D2Y4 1-472): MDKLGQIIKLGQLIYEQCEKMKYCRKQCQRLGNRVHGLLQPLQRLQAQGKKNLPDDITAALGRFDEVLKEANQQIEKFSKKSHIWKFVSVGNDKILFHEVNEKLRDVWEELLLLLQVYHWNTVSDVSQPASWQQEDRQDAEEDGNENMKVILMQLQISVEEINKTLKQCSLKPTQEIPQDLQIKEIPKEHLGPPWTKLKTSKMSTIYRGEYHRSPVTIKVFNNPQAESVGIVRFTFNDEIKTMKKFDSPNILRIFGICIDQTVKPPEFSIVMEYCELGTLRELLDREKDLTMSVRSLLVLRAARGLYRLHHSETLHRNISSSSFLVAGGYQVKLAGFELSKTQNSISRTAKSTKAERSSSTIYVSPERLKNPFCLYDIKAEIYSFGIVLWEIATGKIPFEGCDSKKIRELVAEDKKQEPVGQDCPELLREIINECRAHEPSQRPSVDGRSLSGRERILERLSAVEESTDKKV

T2 sequence (P28028 2-751): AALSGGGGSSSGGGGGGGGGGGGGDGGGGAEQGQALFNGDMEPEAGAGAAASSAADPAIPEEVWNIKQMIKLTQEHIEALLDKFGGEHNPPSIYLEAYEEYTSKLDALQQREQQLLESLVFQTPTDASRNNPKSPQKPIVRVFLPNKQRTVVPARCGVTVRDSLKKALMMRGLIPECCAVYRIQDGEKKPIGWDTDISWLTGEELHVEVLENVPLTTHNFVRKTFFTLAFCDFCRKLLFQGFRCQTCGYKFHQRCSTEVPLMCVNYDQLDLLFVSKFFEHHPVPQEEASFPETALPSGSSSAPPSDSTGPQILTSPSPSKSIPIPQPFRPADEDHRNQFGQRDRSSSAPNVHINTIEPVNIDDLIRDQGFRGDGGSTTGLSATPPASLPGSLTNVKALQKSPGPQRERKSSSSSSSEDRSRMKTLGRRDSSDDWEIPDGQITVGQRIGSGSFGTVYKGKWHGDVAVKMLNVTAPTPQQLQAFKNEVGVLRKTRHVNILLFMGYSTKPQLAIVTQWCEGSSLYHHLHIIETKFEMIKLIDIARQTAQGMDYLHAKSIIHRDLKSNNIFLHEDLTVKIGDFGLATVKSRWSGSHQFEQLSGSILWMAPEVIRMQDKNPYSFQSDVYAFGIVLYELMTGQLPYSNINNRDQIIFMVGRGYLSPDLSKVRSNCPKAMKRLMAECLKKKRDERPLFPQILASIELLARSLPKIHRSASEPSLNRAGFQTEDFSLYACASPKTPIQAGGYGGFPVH
T3 sequence (Q9QZL0 whole entry): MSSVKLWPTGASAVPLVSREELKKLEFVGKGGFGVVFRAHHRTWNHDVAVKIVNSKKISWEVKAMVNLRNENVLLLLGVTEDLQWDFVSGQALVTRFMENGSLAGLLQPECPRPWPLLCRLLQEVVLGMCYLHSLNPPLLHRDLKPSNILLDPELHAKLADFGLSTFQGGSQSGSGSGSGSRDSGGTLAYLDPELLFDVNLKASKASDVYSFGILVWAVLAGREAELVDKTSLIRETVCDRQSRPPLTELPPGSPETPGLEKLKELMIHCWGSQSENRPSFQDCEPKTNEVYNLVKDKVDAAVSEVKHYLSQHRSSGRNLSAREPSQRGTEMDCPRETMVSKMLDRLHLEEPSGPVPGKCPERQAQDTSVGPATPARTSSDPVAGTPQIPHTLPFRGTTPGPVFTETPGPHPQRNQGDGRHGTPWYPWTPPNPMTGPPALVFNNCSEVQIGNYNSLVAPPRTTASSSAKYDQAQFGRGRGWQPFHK

O=C(CCCC[C@@H]1SC[C@@H]2NC(=O)N[C@@H]21)NCCOCCOCCNC(=O)c1cc(Oc2ccc(NC(=O)Nc3ccc(Cl)c(C(F)(F)F)c3)cc2)ccn1 [compound 10, biotinylated Sorafenib]
streptavidin pull down from cell lysate, immunoblot (RIPK1): We show a dose-dependent pull down of RIPK1, RIPK3, MLKL and B-Raf | streptavidin pull down from cell lysate, immunoblot (B-Raf): We show a dose-dependent pull down of RIPK1, RIPK3, MLKL and B-Raf | streptavidin pull down from cell lysate, immunoblot (RIPK3): We show a dose-dependent pull down of RIPK1, RIPK3, MLKL and B-Raf | streptavidin pull down from lysates, including RIPK1-/- and RIPK3-/- MEF (MLKL): Sorafenib is likely to bind independently to RIPK1, RIPK3 or MLKL (Figure 4c), even in the absence of a necroptotic stimulus

Source: publication PMC5520944 (Cell Death & Disease, 2017)
